# Test results reported in patent US20090163474A1, “FXR Agonists for the Treatment of Nonalcoholic Fatty Liver and Cholesterol Gallstone Diseases” (Wyeth, priority 2007, published 2009).
# pIC50: −log10 of the molar value. Read-outs that look alike come from different tables or passages of the source.
# Columns and labels:
# Hep3B cells [1] = assay: FXR siRNA studies in Hep3B cells; type: cell-based, Human; details: Compound A 1 μM, 50 ng/ml IL-6
# Description: FXR siRNA studies were performed in Hep3B cells. […] The cells were transfected with FXR siRNA or control siRNA, stimulated with 50 ng/ml IL-6, and treated with control (DMSO) or Compound A (1 μM). CRP concentrations in the conditional media were measured by ELISA. (*P<0.01, Control siRNA/DMSO vs. Control siRNA/Compound A).
# The Hep3B cells were transfected with FXR siRNA or control siRNA, stimulated with 50 ng/ml IL-6, and treated with control (DMSO) or Compound A (1 μM). […] (*P<0.001, Control siRNA vs. FXR siRNA).
# [2] = system: C57BL/6 mice fed a methionine/choline deficient (MCD) diet; assay: MCD diet fed mice: serum, liver gene expression and liver histology; type: in vivo
# Description: Male C57BL/6 mice were fed a standard chow diet or a methionine/choline deficient (MCD) diet (MCD diet; TD 90262, Harlan Teklad). MCD diet fed mice develop fibrosis and NAFLD including steatosis and NASH due to impaired mitochondrial β-oxidation and reduced hepatic triglyceride secretion.
# Mice were administered vehicle or 30 mg/kg Compound A orally once a day for 4 weeks. Three hours after the final treatment, mice were euthanized, and blood and liver were collected for analyses.
# FIGS. 11A and 11B show the expression levels of VCAM-1 and MCP-1, respectively. Real-time RT PCR analysis of liver RNA was performed. Expression levels were normalized to GAPDH, and the mean level of expression of each gene in vehicle treated mice fed a standard chow diet was defined as 1.0. 7 mice were tested in each group. Data are presented as the mean±SE.
# FIGS. 13, 14, and 15 show representative liver sections from mice fed a standard chow diet, vehicle treated mice fed a MCD diet, and Compound A (30 mg/kg orally once a day) treated mice fed a MCD diet for 4 weeks.
# Male C57BL/6 mice were fed a standard chow diet or a MCD diet and treated with either vehicle or 30 mg/kg Compound A orally once a day for 4 weeks. Three hours after the final treatment, mice were euthanized and liver expression of CYP2E1, a reactive oxygen species (ROS) generating microsomal enzyme, was analyzed.
# [3] = system: FXRKO mice challenged with LPS; assay: LPS-induced liver acute phase response, FXR deficient mice; type: in vivo; details: 30 mg/kg for 4 days; LPS treated FXRKO mice
# Description: Wildtype and FXR deficient mice were treated with Compound A (30 mg/kg) or vehicle for 4 days. On day 4, mice were challenged with 2.5 micrograms of lipopolysaccharide (LPS) to induce an acute phase response. After 4 hours, the mice were euthanized and their livers were harvested for analysis of expression of various factors. […] Compound A attenuated the LPS-induced murine liver acute phase response. […] (*P<0.01, WT/LPS/V vs. WT/LPS/Compound A).
# [4] = system: C57BL/6 mice with preformed gallstones; assay: Gallstone dissolution in mice with preformed gallstones; type: in vivo; details: Paigen diet 4 weeks, then 30 mg/kg orally once a day on chow diet for 4 weeks
# Description: To study gallstone dissolution, gallbladders were harvested from mice treated as follows. C57BL/6 mice were fed a Paigen diet for 4 weeks to initiate gallstone formation. Subsequently these mice were administered vehicle or 30 mg/kg Compound A orally once a day and fed a standard chow diet for 4 weeks to study the effect of Compound A on preformed gallstones.
# Hep3B cells [5] = assay: IL-6 induced CRP gene expression in Hep3B cells; type: cell-based, Human; details: Compound A 1 μM; IL-6 10 ng/ml or 50 ng/ml; P<0.001 vs DMSO
# Description: (§1) Human hepatoma cells, Hep3B secrete the acute phase protein, C-reactive protein (CRP) upon IL-6 treatment. Cells were cotreated with Compound A to determine if Compound A could decrease IL-6 induced CRP secretion.
# FIGS. 26A and 26B show the CRP gene expression level in Hep3B cells stimulated with IL-6 (10 ng/ml or 50 ng/ml), and treated with vehicle (DMSO) or Compound A (1 μM). […] (*P<0.001, Hep3B/DMSO vs. Hep3B/Compound A).
# [6] = system: Wildtype mice challenged with CCl4; assay: CCl4 induced acute liver injury and fibrosis in mice; type: in vivo; details: 30 mg/kg for 4 days, 30 μl/kg CCl4 on day 3, 24 hours
# Description: Wildtype mice were treated with 30 mg/kg Compound A or vehicle for 4 days. On day 3, mice were challenged with 30 μl/kg of carbon tetrachloride (CCl4) to induce acute liver injury. After 24 hours, mice were euthanized and their livers were harvested for analysis.
# Hep3B cells [7] = assay: IL-6 induced CRP secretion in Hep3B cells; type: cell-based, Human; details: for pIC50: Homo sapiens, Hep3B, read-out: IC50 of inhibitory effect on CRP secretion
# Description: as §1
# FIGS. 24A, 24B, and 24C show the levels of CRP secretion (pg/ml) in Hep3B cells after stimulation with IL-6 (10 ng/ml), or IL-6 (50 ng/ml), or IL-6 (10 ng/ml & IL-1β 20 ng/ml), and treated with vehicle (DMSO) or Compound A (5 μM). […] (*P<0.001, Hep3B/DMSO vs. Hep3B/Compound A).
# [8] = 30 mg/kg orally once a day for 4 weeks, MCD diet
# [9] = 30 mg/kg orally once a day for 4 weeks, MCD diet, RT PCR, p<0.001
# [10] = 30 mg/kg orally once a day for 4 weeks, p<0.001
# [11] = 30 mg/kg orally once a day, MCD diet for 4 weeks
compound,measurement,setting,value
"CC(C)OC(=O)C1=CN(C(=O)c2ccc(F)c(F)c2)CC(C)(C)c2c1[nH]c1ccccc21 [Compound A, isopropyl 3-(3,4-difluorobenzoyl)-1,1-dimethyl-1,2,3,6-tetrahydroazepino[4,5-b]indole-5-carboxylate]",CRP inhibition at the mRNA level in cells transfected with FXR siRNA,Hep3B cells [1],suppressed
same,inhibitory effect on CRP secretion in cells transfected with FXR siRNA,Hep3B cells [1]; ELISA,FXR siRNA blocked Compound A's inhibitory effect
same,liver FXR gene expression level,[2]; [8],did not normalize
same,"liver FXR target gene expression (SHP, BSEP)",[2]; [8],normalized
same,liver MCP-1 expression,[2]; [9],significantly inhibited
same,liver VCAM-1 expression,[2]; [9],significantly inhibited
same,serum aspartate aminotransferase (AST) activity level,"[2]; 30 mg/kg orally once a day for 4 weeks, MCD diet, mean±SE, vehicle 491±38.9 U/L, p<0.0001",268±77 U/L
same,serum mKC level vs vehicle,"[2]; 30 mg/kg orally once a day for 4 weeks, MCD diet, p<0.05",reduced
same,liver CYP2E1 expression levels,"[2]; 30 mg/kg orally once a day for 4 weeks, chow or MCD diet (independent of MCD diet), p<0.001",significant inhibition
same,liver MMP-9 expression level (MCD diet induction),[2]; [10],inhibition of MCD diet induction
same,liver MMP-14 expression level (MCD diet induction),[2]; [10],inhibition of MCD diet induction
same,liver TIMP-1 expression level (MCD diet induction),[2]; [10],inhibition of MCD diet induction
same,inflammatory cell infiltration and fibrosis in liver (Trichrome staining),[2]; [11],more severe in the livers of vehicle treated compared to Compound A treated mice
same,inflammatory cell infiltration and portal inflammation in liver (H&E staining),[2]; [11],more severe in the livers of vehicle treated compared to Compound A treated mice
same,"liver function, inflammation and fibrosis (histological analyses of liver sections)",[2]; [11],"preserved liver function, and reduced liver inflammation and fibrosis"
same,neutral lipid accumulation in the liver (Oil Red O staining),[2]; [11],no effect
same,liver SAA-3 levels,[3],not significantly altered
same,liver SAP levels,[3],not significantly altered
same,liver VCAM-1 levels,[3],not significantly altered
same,"Gallstone dissolution (gallstone incidence, mice with gallstones/mice)",[4]; vehicle 13/26,5/20
same,gallstone incidence in mice with preformed gallstones,[4]; vehicle 50%,25%
same,IL-6 induced CRP mRNA levels,Hep3B cells [5],reduced
same,decrease of serum ALT levels vs vehicle,[6]; P<0.01,60%
same,decrease of serum AST levels vs vehicle,[6]; P<0.01,75%
same,decrease of liver TGF-β levels (TGF-β1 mRNA) vs vehicle,"[6]; normalized to GAPDH, P<0.01",30%
same,decrease of liver a-SMA levels (mRNA) vs vehicle,"[6]; normalized to GAPDH, P<0.01",40%
same,decrease of liver MMP-9 levels (mRNA) vs vehicle,"[6]; normalized to GAPDH, P<0.04",75%
same,decrease of liver TIMP-1 levels (mRNA) vs vehicle,"[6]; normalized to GAPDH, P<0.04",60%
same,IL-6 induced CRP secretion,"Hep3B cells [7]; Compound A 5 μM, IL-6 10 ng/ml, IL-6 50 ng/ml, or IL-6 10 ng/ml & IL-1β 20 ng/ml, P<0.001 vs DMSO",inhibited
same,pIC50,Hep3B cells [7]; 10 ng/ml of IL-6,6.65
same,pIC50,Hep3B cells [7]; 50 ng/ml IL-6,6.66
